Assay results reported in patent publication US10183908B2, “Compositions for the treatment of kidney and/or liver disease” (VECTUS BIOSYSTEMS LIMITED, priority 2015, dated 2019).

Columns and labels:
[1] = tested on: A10 embryonic vascular smooth muscle cells; assay: xCELLigence cell impedance in A10 vascular smooth muscle cells; format: cell-based; conditions: test compounds at 62.5, 125 or 250 μM; FIG. 8; negative response = direct vasodilator
Text: The xCELLigence SP system (Roche) was used to measure changes in cellular impedance (cell index) following the treatment of A10 embryonic vascular smooth muscle cells (ATCC, CRL-1476) with test compound. In this in vitro cell based experimental system a negative impedance profile correlates with blood pressure reduction in rats—a decrease in impedance is associated with vasodilatation and an increase in impedance is associated with vasoconstriction (Stallaert W, Dorn J F, van der Westhuizen E, Audet M & Bouvier M. Impedance responses reveal β-adrenergic signaling […] and allow classification of ligands with distinct signalling profiles PLoS ONE 2012; 7(1):e29420, doi:10.1371/journal.pone.0029420).
(§1) Briefly, 50 μl of cell culture medium (DMEM low glucose supplemented with 10% fetal bovine serum at 37° C.) was added to each well of an E-Plate 96 (Roche), and the background impedance in each well was measured. 50 μl of A-10 cell suspension (10,000 cells/well) was then added to the appropriate wells of the E-Plate 96. Cell index was monitored for each well of the E-Plate 96 in RTCA SP Station within the cell culture incubator. After overnight incubation for 16-20 hours at 5% CO2 and 95% humidity, 100 μl of test compound solution (test compounds were prepared in DMSO and diluted with cell culture medium to a final DMSO concentration of 0.25%) was added to the appropriate wells of the E-Plate 96 and cell index values were measured immediately following compound treatment every 20 seconds for 3 hours. Cell index value is baseline-corrected by subtracting the cell index of vehicle-treated cells and normalized by dividing by the cell index at the time point immediately before compound addition. Baseline normalized cell index as a function of time is plotted using Roche RTCA software.
Compounds may achieve reductions in blood pressure by interaction with vascular smooth muscle cells causing these cells to relax resulting in vasodilatation and a reduction in blood pressure. These are termed direct vasodilators.

[2] = tested on: bovine aortic endothelial cells; assay: xCELLigence cell impedance in bovine aortic endothelial cells; format: cell-based; conditions: test compounds at 62.5, 125 or 250 μM; FIG. 9; negative response = indirect vasodilator
Protocol: as §1
The xCELLigence SP system was also used to measure changes in cellular impedance following the treatment of bovine aortic endothelial cells (European Collection of Cell Cultures) with test compound. The method employed is the same for the A10 embryonic vascular smooth muscle cells described above but with the cell culture medium supplemented with 15% fetal bovine serum instead of 10%.
Compounds may interact with vascular endothelial cells causing the release of substances such as nitric oxide and endothelium-derived hyperpolarising factor, which in turn act on the vascular smooth muscle cells causing vasodilatation and lowering blood pressure. Such compounds are termed indirect vasodilators.

[3] = tested on: Rat (NRK-52E) renal proximal tubule cells; assay: Rescue of renal proximal tubule cells from cisplatin cytotoxicity (WST-8/CCK-8); format: cell-based; conditions: test compound 30 μM; cisplatin 5 μg/ml; 24 or 48 hours; FIG. 10
Protocol: Rat (NRK-52E) renal proximal tubule cells grown in DMEM+10% FBS+1% NEAA+2 mM glutamine were placed in 96 well plates at 10,000 cells/well and incubated at 37° C. with 5% CO2 overnight. Test compounds at a concentration of 30 μM were incubated with human or rat renal proximal tubule cells for 2 hours at 37° C. and 5% CO2. Cis-diamminedichloroplatinum[…] (cisplatin) was then added at […] and each cell population was then incubated for 24 or 48 hours at 37° C. with 5% CO2. Test compounds were maintained at their original concentrations. To assay the cytotoxic effects of cisplatin on the rat renal proximal tubule cells a highly water-soluble tetrazolium salt, WST-8, which is reduced by dehydrogenases in cells to produce formazan, a water-soluble, yellow-coloured indicator dye was used following the manufacturer's instructions (specifically the Cell Count Kit-8 (CCK-8) assay from Sigma). Plate absorbance of the WST-8 (CCK-8) reagent was then measured at 450 nm using a Thermo Scientific Multiskan EX plate reader.

SHR [4] = assay: Blood pressure in SHR by tail cuff plethysmography; format: in vivo, rat; conditions: SHR on 2.2% salt diet; 500 pmol/kg/min in drinking solution; 4 weeks; systolic, FIG. 11
Text: Fourteen week old SHR (on a 2.2% salt diet; Glen Forrest Stockfeeders) were randomly assigned to zero time control (14 week old rats), test compound treatment drinking solution (500 pmol/kg/min in deionised distilled water) or control drinking solution (5% ethanol in deionised distilled water). The rats assigned to zero time control group (14 week old rats) were anaesthetised and had their kidneys and liver harvested while rats assigned to control and test compound treatment were weighed twice weekly and had their drinking solution intake monitored to allow adjustment of the test compound concentration in the drinking solution to maintain a constant dose over the 4-week study period. Blood pressure was measured twice weekly by tail cuff plethysmography (PowerLab, ADInstruments, Castle Hill, NSW, Australia). After 4 weeks rats were anaesthetised (18 week old rats), and their kidneys and liver harvested.

SHR [5] = assay: Kidney fibrosis in SHR (Masson's trichrome); format: in vivo, rat; conditions: SHR on 2.2% salt diet, 500 pmol/kg/min, 4 weeks; for Fibrosis in the kidney compared to 18 week controls: FIG. 12, *p<0.05
Text: (§2) Fourteen week old SHR (on a 2.2% salt diet; Glen Forrest Stockfeeders) were randomly assigned to zero time control (14 week old rats), test compound treatment drinking solution (500 pmol/kg/min in deionised distilled water) or control drinking solution (5% ethanol in deionised distilled water). The rats assigned to zero time control group (14 week old rats) were anaesthetised and had their kidneys and liver harvested while rats assigned to control and test compound treatment were weighed twice weekly and had their drinking solution intake monitored to allow adjustment of the test compound concentration in the drinking solution to maintain a constant dose over the 4-week study period. Blood pressure was measured twice weekly by tail cuff plethysmography (PowerLab, ADInstruments, Castle Hill, NSW, Australia). After 4 weeks rats were anaesthetised (18 week old rats), and their kidneys and liver harvested. To quantitate tissue fibrosis and/or fat content, tissue slices ≤3 mm thick were fixed in 10% buffered formalin for 24 hours, processed and embedded in paraffin. Three micron transverse sections were stained using Masson's trichrome stain. A minimum of 20 random fields at magnification ×20 from transverse sections (5 at each of 2 levels) were digitized and the degree of fibrosis and fat content determined as a percent of field area of each digitized image using Image-Pro Plus V.7 (Media Cybernetics, Bethesda, Md., USA) then averaged to determine the level of fibrosis and/or fat content for each rat.

SHR [6] = assay: Hepatic fibrosis in SHR (Masson's trichrome); format: in vivo, rat; conditions: for Tissue architecture of portal tracts in Masson's tri-chrome stained liver sections: SHR treated rats vs control, FIG. 14; for Fibrosis in the liver compared to 18 week controls: SHR, 500 pmol/kg/min, 4 weeks, FIG. 13, *p<0.05, **p<0.025, ***p<0.01
Text: as §2

SHR [7] = assay: Hepatic fat content in SHR; format: in vivo, rat; conditions: SHR on 2.2% salt diet; 500 pmol/kg/min; 4 weeks; FIG. 15, *p<0.05, **p<0.025, ***p<0.01
Text: as §2

Row | Structure (SMILES) | impedance response for A10 vascular smooth muscle cells [1] | impedance response for bovine aortic endothelial cells [2] | Cisplatin induced cell death in renal proximal tubular cells [3] | Blood pressure (SHR [4]) | Fibrosis in the kidney compared to 14 week controls (SHR [5]; FIG. 12, #p<0.05, reversal of established fibrosis) | Fibrosis in the kidney compared to 18 week controls (SHR [5]) | Tissue architecture of portal tracts in Masson's tri-chrome stained liver sections (SHR [6]) | Fibrosis in the liver compared to 18 week controls (SHR [6]) | Fat in the liver compared to 18 week controls (SHR [7])
1 | NC(=O)CCc1cc(-c2ccc(F)cc2)ccc1-c1cccc(O)c1 [Compound P3, 3-(4″-Fluoro-3-hydroxy-1,1′:4′,1″-terphenyl-2′-yl)propanamide] | Negative impedance responses | Negative impedance responses | decreased |  |  |  |  |  | 
2 | NC(=O)CCc1cc(-c2cccnc2)ccc1-c1cccc(O)c1 [Compound P5, 3-(3′-Hydroxy-4-(pyridin-3-yl)-[1,1′-biphenyl]-2-yl)propanamide] | Negative impedance responses |  | decreased | reduced | decreased | decreased |  |  | 
3 | NC(=O)CCc1cc(-c2ccsc2)ccc1-c1cccc(O)c1 [Compound P8, 3-(3′-Hydroxy-4-(thiophen-3-yl)-[1,1′biphenyl]-2-yl)propanamide] | Negative impedance responses | Negative impedance responses | decreased | reduced |  | decreased | normal tissue architecture has been restored | decreased | 
4 | NC(=O)CCc1cc(-n2cccc2)ccc1-c1cccc(O)c1 [Compound P9, 3-(3′-Hydroxy-4-(1H-pyrrol-1-yl)-[1,1′-biphenyl]-2-yl)propanamide] | Negative impedance responses | Negative impedance responses | decreased |  |  | decreased | normal tissue architecture has been restored | decreased | 
5 | NC(=O)CCc1cc(-c2ccoc2)ccc1-c1cccc(O)c1 [Compound P11, 3-(4-(Furan-3-yl)-3′-hydroxy-[1,1′-biphenyl]-2-yl)propanamide] | Negative impedance responses | Negative impedance responses | decreased |  |  | decreased |  | decreased | 
6 | NC(=O)CCc1cc(-c2cn[nH]c2)ccc1-c1cccc(O)c1 [Compound P22, 3-(3′-Hydroxy-4-(1H-pyrazol-4-yl)-[1,1′-biphenyl]-2-yl)propanamide] |  | Negative impedance responses | decreased | reduced |  | decreased |  | decreased | reduced
7 | NC(=O)CCc1cc(-c2cncnc2)ccc1-c1cccc(O)c1 [Compound P26, 3-(3′-Hydroxy-4-(pyrimidin-5-yl)-[1,1-biphenyl]-2-yl)propanamide] |  | Negative impedance responses | decreased |  |  | decreased | normal tissue architecture has been restored | decreased | reduced
8 | NC(=O)CCc1cc(-c2cc(F)cc(F)c2)ccc1-c1cccc(O)c1 [Compound P33, 3-(3″,5″-Difluoro-3-hydroxy-1,1′:4′,1″-terphenyl-2′-yl)propanamide] | Negative impedance responses | Negative impedance responses | decreased |  |  |  |  |  | 
9 | Cc1nc(C)c(-c2ccc(-c3cccc(O)c3)c(CCC(N)=O)c2)s1 [Compound P40, 3-(4-(2,4-Dimethylthiazol-5-yl)-3′-hydroxy-[1,1′biphenyl]-2-yl)propanamide] |  |  | decreased | reduced |  | decreased |  | decreased | reduced
10 | Cc1cccc(-c2ccc(-c3cccc(O)c3)c(CCC(N)=O)c2)c1 [Compound P46, 3-(3-Hydroxy-3″-methyl-1,1′:4′,1″-terphenyl-2′-yl)propanamide] | Negative impedance responses | Negative impedance responses | decreased |  |  |  |  |  | 
